For data set [1], the system named is human pulmonary cancer cell strain A549. Kind of data set: A549 tumor cell growth inhibition, MTT method. The note with it: read-out: half growth inhibition concentration (IC50).
Data set [2] is described as follows: Lipid-water partition coefficient test (n-octanol / biological brine, UV). The procedure: I mg of each of 4-(2,3,5,6-tetramethylpyrazin-1-yl)-4′-demethylepipodophyllotoxin, 4′-demethylepipodophyllotoxin and podophyllotoxin was respectively dissolved into 3 centrifuge tubes of 10 mL each containing 2 mL n-octanol and 2 mL biological brine, the tubes were capped tight, shook thoroughly for 10 min, and subsequently let stand for 20 min. 0.2 mL of the organic- and water phase were respectively pipetted into clean test tubes. Absorbance (A) values of the organic- and water phase were measured using UV method, respectively, using A to calculate the weights of the drugs dissolved in the organic- and water layer, Walcohol and Wwater, respectively. The operations were repeated 3 times, averages were calculated, lipid-water partition coefficients were calculated using Eq. 1:
[formula] where Walcohol and Wwater denote the measured weights of drugs in n-octanol- and water phase, respectively; Valcohol and Vwater denote volumes of n-octanol- and water phase, respectively. 3. Results

The subject of another data set is HepG2 tumor cell strain. Kind of data set: HepG2 tumor cell growth inhibition, MTT method. Conditions: for IC50: Homo sapiens, HepG2, 48 h, read-out: half growth inhibition concentration (IC50). Background: Tetrazolium assays rely on reduction of a dye to a coloured formazan, in cell work by metabolically active cells.
In data set [3] the test system is human gastric cancer cell strain BGC-823. Kind of data set: BGC-823 tumor cell growth inhibition, MTT method. The class given is cell-based. The note with it: read-out: half growth inhibition concentration (IC50).
A short description of data set [4]: HK-2 normal cell growth inhibition (cell toxicity), MTT method. The class given is cell-based, human. The note with it: human, HK-2 cells (proximal tubule); HK-2 normal cells, MTT, 48 h; read-out: half growth inhibition concentration (IC50), cell toxicity.
In data set [5] the test system is human proximal tubule cell strain HK-2. The data set is described as above. Conditions: HK-2 normal cells, from IC50 values. The class given is cell-based.
[6] abbreviates: Homo sapiens, BGC-823 cells, MTT, 48 h.

This note sets out measurements from US8796279B2, “4′-demethylepipodophyllotoxin derivative, preparation method and use thereof” (Hubei University of Technology, priority 2010, dated 2014).

Read-outs that look alike come from different tables or passages of the source.

By logP is commonly meant the decadic logarithm of the partition coefficient of the neutral form, usually between octanol and water. A higher logP goes with a more lipophilic compound. As to `COc1cc([C@@H]2c3cc4c(cc3[C@@H]([n+]3c(C)c(C)nc(C)c3C)[C@H]3COC(=O)[C@H]23)OCO4)cc(OC)c1O` [4-(2,3,5,6-tetramethylpyrazin-1-yl)-4′-demethylepipodophyllotoxin], the IC50 in data set [1] (Homo sapiens, A549, 48 h) is 230 nM; in the data set on HepG2 tumor cell strain it was 290 nM; in data set [3] (setting [6]), 60 nM. In data set [2], this molecule returned a logP of 0.66. In addition, the “lipid water partition coefficient increased than 4′-demethylepipodophyllotoxin” value in data set [2] (from logP values) is listed as 16%. The “lipid water partition coefficient increased than podophyllotoxin” value in data set [2] (from logP values) worked out at 94%. Besides, the “inhibition activity raised in comparison with etoposide” value with HepG2 tumor cell strain (HepG2 cells, from IC50 values) is listed as 2.7 times. Further, the IC50 at 48 h in data set [4] stood at 240 nM. The “cell toxicity decreased in comparison with podophyllotoxin” value in data set [5] is on record as roughly 66 times.
With `COc1cc([C@@H]2c3cc4c(cc3[C@@H](O)[C@H]3COC(=O)[C@H]23)OCO4)cc(OC)c1O` [4′-demethylepipodophyllotoxin], the IC50 was determined as 450 nM in data set [1] (A549 cells, MTT, 48 h) and 398000 nM in data set [3] (BGC-823 cells, MTT, 48 h).
Regarding `COc1cc([C@@H]2c3cc4c(cc3[C@@H](O[C@@H]3O[C@@H]5CO[C@@H](C)O[C@H]5[C@H](O)[C@H]3O)[C@H]3COC(=O)[C@H]23)OCO4)cc(OC)c1O` [etoposide], the IC50 in data set [1] (Homo sapiens, A549, 48 h) worked out at 165000 nM; with HepG2 tumor cell strain, 1060 nM; in data set [3] (setting [6]), 14000 nM.
Regarding `COc1cc([C@@H]2c3cc4c(cc3[C@H](O)[C@H]3COC(=O)[C@H]23)OCO4)cc(OC)c1OC` [podophyllotoxin], in data set [2], the log partition coefficient (logP) is 0.34. For the same molecule, the IC50 in data set [3] (Homo sapiens, BGC-823, 48 h) was determined as 529000 nM. In data set [4], the IC50 at 48 h was 3.5 nM.
Take `Cc1nc(C)c(C)nc1C` [tetramethylpyrazine]: in data set [2], the “lipid-water partition coefficient (logP)” value was greater than 5 and the logP is greater than 5.
